Measurements: publication PMC4571851, “Arginine-Ornithine Antiporter ArcD Controls Arginine Metabolism and Interspecies Biofilm Development of Streptococcus gordonii” (The Journal of Biological Chemistry, 2015)

Target: T1, ArcD (arginine-ornithine antiporter) (Streptococcus gordonii, UniProt A8AYK8)
T1 construct: native full-length membrane transporter in intact wild-type S. gordonii cells; deletion mutant and complemented strain as controls
Assay: inhibition of [3H]arginine uptake into intact wild-type cells
Format: cell-based
Details: whole cells in PBS, 20 s, 50 μM labelled arginine, unlabelled ornithine at 100-fold excess

T1 sequence (A8AYK8 entry or part of it): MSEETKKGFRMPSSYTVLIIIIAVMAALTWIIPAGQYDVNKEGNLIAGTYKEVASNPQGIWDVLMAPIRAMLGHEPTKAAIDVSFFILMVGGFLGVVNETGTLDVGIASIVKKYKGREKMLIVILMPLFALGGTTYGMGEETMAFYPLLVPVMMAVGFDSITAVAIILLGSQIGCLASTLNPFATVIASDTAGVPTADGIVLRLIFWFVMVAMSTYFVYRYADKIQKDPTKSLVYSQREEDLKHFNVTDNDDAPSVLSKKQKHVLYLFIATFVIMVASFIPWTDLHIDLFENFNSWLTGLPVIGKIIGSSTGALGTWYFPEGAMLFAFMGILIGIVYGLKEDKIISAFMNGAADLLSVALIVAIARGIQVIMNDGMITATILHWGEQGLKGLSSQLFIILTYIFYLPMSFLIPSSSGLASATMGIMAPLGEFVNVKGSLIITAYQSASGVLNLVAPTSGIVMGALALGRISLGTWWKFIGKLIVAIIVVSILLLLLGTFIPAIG

`NCCC[C@H](N)C(=O)O` [Ornithine] was tested, and the “% inhibition at 100-fold excess” value was “Ornithine also had a moderate effect on the inhibition of arginine uptake”.
